Experimental data published in patent EP3150203B1, “COMPOUNDS WITH (1E,6E)-1,7-BIS-(3,4- DIMETHOXYPHENYL)-4,4-DISSTITUTED-HEPA-1,6-DIENE-3,5-DI-ONE STRUCTURAL SCAFFOLD,THEIR BIOLOGICAL ACTIVITY, AND USES THEREOF” (Allianz Pharmascience Ltd, priority 2012, dated 2013).
Like-named read-outs stand apart in the source and are kept apart here.

Key:
Androgen Receptor (AR) = target: T1, Androgen Receptor (AR) (Homo sapiens, UniProt P10275, H875Y, form not given); test: Western Blot analysis of AR protein expression in CWR22Rv1 cells; format: cell-based; details: for IC50: Western blotting
T1 sequence (P10275 1-920 H875Y): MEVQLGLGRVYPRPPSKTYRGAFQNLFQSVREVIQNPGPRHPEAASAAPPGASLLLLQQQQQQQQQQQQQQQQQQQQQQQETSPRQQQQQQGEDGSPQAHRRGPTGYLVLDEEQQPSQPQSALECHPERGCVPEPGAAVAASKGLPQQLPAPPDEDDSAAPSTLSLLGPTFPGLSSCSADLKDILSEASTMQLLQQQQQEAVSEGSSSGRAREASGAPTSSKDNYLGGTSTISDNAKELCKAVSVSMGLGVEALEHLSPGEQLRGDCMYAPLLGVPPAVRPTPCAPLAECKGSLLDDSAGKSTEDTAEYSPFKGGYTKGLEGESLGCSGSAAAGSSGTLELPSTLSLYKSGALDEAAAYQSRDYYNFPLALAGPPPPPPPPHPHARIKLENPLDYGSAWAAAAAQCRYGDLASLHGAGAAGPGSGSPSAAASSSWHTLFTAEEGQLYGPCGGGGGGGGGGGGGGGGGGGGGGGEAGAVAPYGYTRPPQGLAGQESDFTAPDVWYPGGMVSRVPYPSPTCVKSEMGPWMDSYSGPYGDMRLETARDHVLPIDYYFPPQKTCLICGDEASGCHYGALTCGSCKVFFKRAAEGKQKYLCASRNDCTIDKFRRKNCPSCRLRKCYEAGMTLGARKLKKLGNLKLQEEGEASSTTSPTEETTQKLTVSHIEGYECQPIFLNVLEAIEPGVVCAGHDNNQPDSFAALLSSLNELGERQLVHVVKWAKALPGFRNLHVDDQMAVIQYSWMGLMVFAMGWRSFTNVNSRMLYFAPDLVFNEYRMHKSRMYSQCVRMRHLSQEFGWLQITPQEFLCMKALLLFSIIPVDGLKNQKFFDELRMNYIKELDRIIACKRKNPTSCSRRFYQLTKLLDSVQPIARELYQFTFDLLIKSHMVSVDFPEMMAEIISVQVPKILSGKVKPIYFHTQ

[1] = test system: CWR22Rv1 cells (human prostate cancer); test: MTT cell growth assay, CWR22Rv1 cells; format: cell-based; details: 5 days, read-out: Inhibition of Tumor cells growth IC50
Method: The MTT cell proliferation assay was applied in the present invention to detect the capability of compounds to suppress or inhibit prostate cancer cells growth. […] Briefly, 1 x 10^3 LNCaP or CWR22Rv1 cells suspended in complete medium were plated into each well of a 96-well Microtest III tissue culture plate (Falcon, NJ). Two days later, the medium was replaced with RPMI-1640 medium containing 10% charcoal/dextran-deprived FBS (hormone-deprived fetal bovine serum). Testing compounds were added to the medium at indicated concentrations with or without 1 nM DHT and cells were cultured for 5 days in an incubator (at 37 °C). MTT substrate solution (5 mg/ml in PBS) in 1/10 of volume was added to the cells in each well at 2 hours before harvesting. After 2 hour incubation, the plates were centrifuged (10 min at 1,000 rpm) and the supernatant from each well was carefully removed. A 100 µl of lysis buffer (50% dimethyl formamide, 5% sodium dodecyl sulphate, 0.35 M acetic acid, and 50 mM HCl) was added to each well to lyse the cells and dissolved tetrazolium in each well. The relative quantity of enzyme activity from each well was measured based on absorbance read at a wavelength of 450 nm using a Bio-RAD BenchMark microplate reader. Data derived from the MTT assay were also verified by the actual cell count and cell morphology on a separate plate set up in parallel.
For inhibition of tumor cell growth, in vitro, cells were growth in the presence of testing compounds for 5 days, and the cell growth was assayed by standard MTT assay. […] Table 2: Biological activity of Compounds and Derivatives having (1E, 6E)-1,7-bis-(3,4-dimethoxyphenyl)-4,4-disubstituted-hepta-1,6-diene-3,5-dione OR (1E, 10E)-1,11-bis(substituted phenyl)- 6,6-disubstituted undeca-1,3,8,10-tetraene-5,7-dione structural scaffold

[2] = Stability in acidic condition (0.1 N HCl, 37°C); format: physicochemical
Excerpt: (§1) Also, at 24 hr where stability of JM49 was only 4%, while its derivative Compound 6 had improved to 79%. Similar improvements in stability (from 6- 24 hr) were also observed in the conditions of rat plasma (Table 4) and human plasma (Table 5). […] Table 3. Relative compound concentration changes (stability) in acidic condition

[3] = Stability in rat plasma (37°C); format: in vitro ADME
Excerpt: as §1

[4] = Stability in human plasma (37°C); format: in vitro ADME; details: result in words (Table 5 not given)
Excerpt: as §1

[5] = 48 h post-incubation, read-out: Reduction of AR expression IC50 (µM) 48 h
[6] = 24 h post-incubation, read-out: Reduction of AR expression IC50 (µM) 24 h

COc1ccc(/C=C/C(=O)C(C)(CC2CC2)C(=O)/C=C/c2ccc(OC)c(OC)c2)cc1OC [Compound 1]
IC50 (Androgen Receptor (AR); [5]): 2.1 µM | IC50 [1]: 2.4 µM

COc1ccc(/C=C/C(=O)C(C)(CC2CCC2)C(=O)/C=C/c2ccc(OC)c(OC)c2)cc1OC [Compound 2]
IC50 ([1]; Homo sapiens, 120 h): > 7.5 µM

COc1ccc(/C=C/C(=O)C(C)(CC2CCCC2)C(=O)/C=C/c2ccc(OC)c(OC)c2)cc1OC [Compound 4]
IC50 ([1]; Homo sapiens, 120 h): 2.6 µM

COc1ccc(/C=C/C(=O)C(C)(CC2CCCCC2)C(=O)/C=C/c2ccc(OC)c(OC)c2)cc1OC [Compound 5]
IC50 (Androgen Receptor (AR); [5]): 4 µM | IC50 [1]: 4.6 µM

CCN(CC)C(=O)CC(C)(C(=O)/C=C/c1ccc(OC)c(OC)c1)C(=O)/C=C/c1ccc(OC)c(OC)c1 [Compound 6]
IC50 ([1]; Homo sapiens, 120 h): 1.5 µM | Concentration change (%) (stability) in acidic condition ([2]; 0 h): 100% | Concentration change (%) (stability) in acidic condition ([2]; 2 h): 100% | Concentration change (%) (stability) in acidic condition ([2]; 4 h): 99% | Concentration change (%) (stability) in acidic condition ([2]; 24 h): 79% | Concentration change (%) (stability) in acidic condition ([2]; 48 h): 56% | Concentration change (%) (stability) in rat plasma ([3]; 0 h): 100% | Concentration change (%) (stability) in rat plasma ([3]; 1 h): 98% | Concentration change (%) (stability) in rat plasma ([3]; 2 h): 96% | Concentration change (%) (stability) in rat plasma ([3]; 6 h): 93% | Concentration change (%) (stability) in rat plasma ([3]; 24 h): 77% | Concentration change (%) (stability) in rat plasma ([3]; 48 h): 51% | stability in human plasma [4]: unexpectedly and dramatically improved

COc1ccc(/C=C/C(=O)C(C)(CC(=O)N(C)C)C(=O)/C=C/c2ccc(OC)c(OC)c2)cc1OC [Compound 7]
IC50 ([1]; Homo sapiens, 120 h): 2 µM | Concentration change (%) (stability) in acidic condition ([2]; 0 h): 100% | Concentration change (%) (stability) in acidic condition ([2]; 1 h): 99% | Concentration change (%) (stability) in acidic condition ([2]; 2 h): 99% | Concentration change (%) (stability) in acidic condition ([2]; 4 h): 98% | Concentration change (%) (stability) in acidic condition ([2]; 24 h): 81% | Concentration change (%) (stability) in acidic condition ([2]; 48 h): 58% | Concentration change (%) (stability) in rat plasma ([3]; 0 h): 100% | Concentration change (%) (stability) in rat plasma ([3]; 1 h): 101% | Concentration change (%) (stability) in rat plasma ([3]; 2 h): 100% | Concentration change (%) (stability) in rat plasma ([3]; 6 h): 101% | Concentration change (%) (stability) in rat plasma ([3]; 24 h): 99% | Concentration change (%) (stability) in rat plasma ([3]; 48 h): 86% | stability in human plasma [4]: unexpectedly and dramatically improved

CCCCC(C)(C(=O)/C=C/c1ccc(OC)c(OC)c1)C(=O)/C=C/c1ccc(OC)c(OC)c1 [Compound 8]
IC50 ([1]; Homo sapiens, 120 h): 2.3 µM

COc1ccc(/C=C/C(=O)C(C)(CC(=O)N2CCOCC2)C(=O)/C=C/c2ccc(OC)c(OC)c2)cc1OC [Compound 11]
IC50 (Androgen Receptor (AR); [6]): 2.2 µM

COc1ccc(/C=C/C(=O)C(F)(CC2CC2)C(=O)/C=C/c2ccc(OC)c(OC)c2)cc1OC [Compound 13]
IC50 ([1]; Homo sapiens, 120 h): > 5 µM

COc1ccc(/C=C/C(=O)C(F)(CC2CCC2)C(=O)/C=C/c2ccc(OC)c(OC)c2)cc1OC [Compound 14]
IC50 ([1]; Homo sapiens, 120 h): 3.6 µM

COc1ccc(/C=C/C(=O)C(F)(CC2CCCC2)C(=O)/C=C/c2ccc(OC)c(OC)c2)cc1OC [Compound 15]
IC50 ([1]; Homo sapiens, 120 h): 3.2 µM

COc1ccc(/C=C/C(=O)C(F)(CC2CCCCC2)C(=O)/C=C/c2ccc(OC)c(OC)c2)cc1OC [Compound 16]
IC50 ([1]; Homo sapiens, 120 h): 4 µM

CCN(CC)C(=O)CC(F)(C(=O)/C=C/c1ccc(OC)c(OC)c1)C(=O)/C=C/c1ccc(OC)c(OC)c1 [Compound 17]
IC50 ([1]; Homo sapiens, 120 h): > 7.5 µM

COc1ccc(/C=C/C(=O)C(F)(CC(=O)N(C)C)C(=O)/C=C/c2ccc(OC)c(OC)c2)cc1OC [Compound 18]
IC50 (Androgen Receptor (AR); [6]): > 5 µM | IC50 [1]: > 7.5 µM

CCCCC(F)(C(=O)C=Cc1ccc(OC)c(OC)c1)C(=O)C=Cc1ccc(OC)c(OC)c1 (stereo not shown) [Compound 19]
IC50 ([1]; Homo sapiens, 120 h): 4.7 µM

CCN(CC)C(=O)CC(Cl)(C(=O)/C=C/c1ccc(OC)c(OC)c1)C(=O)/C=C/c1ccc(OC)c(OC)c1 [Compound 20]
IC50 ([1]; Homo sapiens, 120 h): 4 µM

COc1ccc(/C=C/C(=O)C(Cl)(CC(=O)N(C)C)C(=O)/C=C/c2ccc(OC)c(OC)c2)cc1OC [Compound 21]
IC50 ([1]; Homo sapiens, 120 h): > 7.5 µM

CCOC(=O)CCC(C)(C(=O)/C=C/c1ccc(OC)c(OC)c1)C(=O)/C=C/c1ccc(OC)c(OC)c1 [Compound 22]
IC50 (Androgen Receptor (AR); [6]): 1.8 µM

CCOC(=O)CCC(F)(C(=O)/C=C/c1ccc(OC)c(OC)c1)C(=O)/C=C/c1ccc(OC)c(OC)c1 [Compound 23]
IC50 (Androgen Receptor (AR); [6]): > 5 µM

CCN(CC)C(=O)CC(C)(C(=O)C=CC=Cc1ccc(OC)c(OC)c1)C(=O)C=CC=Cc1ccc(OC)c(OC)c1 (stereo not shown) [Compound 32]
IC50 (Androgen Receptor (AR); [6]): 2.8 µM

CCN(CC)C(=O)CC(C(=O)/C=C/c1ccc(OC)c(OC)c1)C(=O)/C=C/c1ccc(OC)c(OC)c1 [JM49]
reducing endogenous AR expression (Androgen Receptor (AR); various concentrations, Western Blot (FIG. 6)): capable of reducing endogenous AR expression | Concentration change (%) (stability) in acidic condition ([2]; 0 h): 100% | Concentration change (%) (stability) in acidic condition ([2]; 1 h): 73% | Concentration change (%) (stability) in acidic condition ([2]; 2 h): 56% | Concentration change (%) (stability) in acidic condition ([2]; 6 h): 38% | Concentration change (%) (stability) in acidic condition ([2]; 24 h): 4% | Concentration change (%) (stability) in rat plasma ([3]; 0 h): 100% | Concentration change (%) (stability) in rat plasma ([3]; 1 h): 68% | Concentration change (%) (stability) in rat plasma ([3]; 2 h): 54% | Concentration change (%) (stability) in rat plasma ([3]; 6 h): 27% | Concentration change (%) (stability) in rat plasma ([3]; 24 h): 2% | Concentration change (%) (stability) in rat plasma ([3]; 48 h): 0% | stability in human plasma [4]: chemically unstable

COc1ccc(/C=C/C(=O)C(CC(=O)N(C)C)=C(O)/C=C/c2ccc(OC)c(OC)c2)cc1OC [JM77]
Concentration change (%) (stability) in acidic condition ([2]; 0 h): 100% | Concentration change (%) (stability) in acidic condition ([2]; 1 h): 14% | Concentration change (%) (stability) in acidic condition ([2]; 2 h): 8% | Concentration change (%) (stability) in acidic condition ([2]; 6 h): 0% | Concentration change (%) (stability) in acidic condition ([2]; 24 h): 0% | Concentration change (%) (stability) in rat plasma ([3]; 0 h): 100% | Concentration change (%) (stability) in rat plasma ([3]; 1 h): 93% | Concentration change (%) (stability) in rat plasma ([3]; 2 h): 88% | Concentration change (%) (stability) in rat plasma ([3]; 6 h): 73% | Concentration change (%) (stability) in rat plasma ([3]; 24 h): 27% | Concentration change (%) (stability) in rat plasma ([3]; 48 h): 7% | stability in human plasma [4]: chemically unstable
